# Reference: ChEMBL document CHEMBL1201862, “PubChem BioAssay data set” (2004)
# Activity calls are given as the source filed them.
# How the values were obtained:
# [1] = target: T1, Alkaline phosphatase, tissue-nonspecific isozyme (Homo sapiens, UniProt P05186); assay: TNAP enzyme activators, dose response, selectivity assay for human IAP activator project, biochemical, TNAP isozyme, human IAP uHTS hits (AID 488886); type: functional;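 note: potency of compounds raising TNAP activity as a selectivity check on IAP activators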
# T1 sequence (P05186 whole entry): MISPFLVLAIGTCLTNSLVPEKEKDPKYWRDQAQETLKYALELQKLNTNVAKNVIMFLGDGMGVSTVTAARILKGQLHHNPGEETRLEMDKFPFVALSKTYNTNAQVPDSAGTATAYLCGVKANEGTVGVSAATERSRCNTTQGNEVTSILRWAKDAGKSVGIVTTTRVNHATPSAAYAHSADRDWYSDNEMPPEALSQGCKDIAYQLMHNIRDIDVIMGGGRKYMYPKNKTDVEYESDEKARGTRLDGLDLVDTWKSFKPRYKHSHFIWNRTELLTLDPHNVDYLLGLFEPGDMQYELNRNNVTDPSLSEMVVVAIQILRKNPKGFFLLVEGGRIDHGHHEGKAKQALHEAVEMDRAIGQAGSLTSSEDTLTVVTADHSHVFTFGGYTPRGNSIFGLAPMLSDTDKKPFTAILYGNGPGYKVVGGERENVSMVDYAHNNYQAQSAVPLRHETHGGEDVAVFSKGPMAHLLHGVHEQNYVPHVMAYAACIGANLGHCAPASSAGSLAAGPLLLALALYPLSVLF
# [2] = target: T2, Intestinal-type alkaline phosphatase (Mus musculus, UniProt P24822); assay: PubChem AID 488785; type: functional
# [3] = target: T3, Intestinal-type alkaline phosphatase (Homo sapiens, UniProt P09923); assay: human intestinal alkaline phosphatase activators, dose response, biochemical, luminescence, uHTS hits (AID 463120); type: functional
# [4] = target: T1, Alkaline phosphatase, tissue-nonspecific isozyme; assay: TNAP enzyme inhibition by screening hits, dose response, selectivity assay for mouse IAP inhibitor project, biochemical, human TNAP, uHTS hits (AID 488906); type: functional
# [5] = target: T3, Intestinal-type alkaline phosphatase; assay: inhibition of human intestinal alkaline phosphatase – biochemical, dose response (AID 488876); type: functional
# [6] = target: Eukaryotic translation initiation factor 4H (Homo sapiens, UniProt Q15056); assay: human eIF4H binding inhibitors, primary screen, translation initiation inhibitor project, biochemical, uHTS, fluorescence polarization (AID 2012)
# [7] = target: T2, Intestinal-type alkaline phosphatase; assay: PubChem AID 488874; type: functional
# [8] = target: T4, Streptokinase A (Streptococcus pyogenes serotype M1, UniProt P10520); assay: S. pyogenes streptokinase expression inhibitors, potency, dose response, plasminogen activation absorbance, OD405 (AID 1914); type: functional, Streptococcus pyogenes M1 GAS;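 note: secreted streptokinase activity via plasminogen activation per viability signal from cell pellet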
# T4 sequence (P10520 whole entry): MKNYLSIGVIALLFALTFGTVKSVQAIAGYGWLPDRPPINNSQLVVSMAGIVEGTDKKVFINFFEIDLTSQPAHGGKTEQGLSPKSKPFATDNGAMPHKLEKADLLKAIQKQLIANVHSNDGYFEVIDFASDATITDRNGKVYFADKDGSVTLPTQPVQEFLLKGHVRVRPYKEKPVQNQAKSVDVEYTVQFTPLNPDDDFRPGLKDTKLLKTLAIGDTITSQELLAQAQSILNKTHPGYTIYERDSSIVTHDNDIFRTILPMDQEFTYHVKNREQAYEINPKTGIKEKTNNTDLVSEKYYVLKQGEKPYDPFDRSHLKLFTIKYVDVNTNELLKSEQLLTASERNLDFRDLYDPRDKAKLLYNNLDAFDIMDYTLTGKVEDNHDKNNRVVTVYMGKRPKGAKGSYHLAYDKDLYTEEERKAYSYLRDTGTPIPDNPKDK
# [9] = tested on: Streptococcus sp. 'group A'; assay: growth inhibition of control SK(-) GAS strain, dose response, counter-screen for streptokinase expression inhibitor project, luminescence, kanamycin, BacTiterGlo, confirmation (AID 1900); type: functional, organism-based
# [10] = tested on: Streptococcus; assay: Group A Streptococcus viability loss, dose response, counter-screen for streptokinase expression inhibitor project, luminescence, BacTiterGlo (AID 1915); type: functional, organism-based;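 note: potency for reduction of bacterial viability or growth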
# [11] = target: Latent membrane protein 1 (Human herpesvirus 4 (strain B95-8), UniProt P03230); assay: TES1-eGFP NF-kB reporter inhibition versus Tet-On dsRED, dose response, selectivity assay for LMP1 NF-kB inhibitor project, imaging, HEK293T, dual-color eGFP/dsRED, cherry-picks (AID 588398); type: functional, cell-based
# [12] = tested on: INS1; assay: beta cell apoptosis inhibitors, cytokine rescue, dose response, luminescence, retest (AID 449756); type: functional, cell-based; settings: Rattus norvegicus;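 note: cell death triggered by IL-1 beta plus TNF-alpha plus IFN-gamma mixture; protective hits raise ATP signal compared with cytokine alone wells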
# [13] = target: Nonstructural protein 1 (Influenza A virus, UniProt Q194T2); type: functional, Influenza A virus (A/California/07/2009(H1N1))
# Chain of Nonstructural protein 1 (Q194T2 whole entry): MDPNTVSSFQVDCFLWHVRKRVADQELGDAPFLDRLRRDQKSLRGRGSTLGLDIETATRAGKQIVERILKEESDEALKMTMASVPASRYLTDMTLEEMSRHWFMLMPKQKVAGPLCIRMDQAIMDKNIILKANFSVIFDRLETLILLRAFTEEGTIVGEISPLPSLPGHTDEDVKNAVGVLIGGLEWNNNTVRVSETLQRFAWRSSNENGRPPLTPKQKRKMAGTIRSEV
# T2 sequence (P24822 whole entry): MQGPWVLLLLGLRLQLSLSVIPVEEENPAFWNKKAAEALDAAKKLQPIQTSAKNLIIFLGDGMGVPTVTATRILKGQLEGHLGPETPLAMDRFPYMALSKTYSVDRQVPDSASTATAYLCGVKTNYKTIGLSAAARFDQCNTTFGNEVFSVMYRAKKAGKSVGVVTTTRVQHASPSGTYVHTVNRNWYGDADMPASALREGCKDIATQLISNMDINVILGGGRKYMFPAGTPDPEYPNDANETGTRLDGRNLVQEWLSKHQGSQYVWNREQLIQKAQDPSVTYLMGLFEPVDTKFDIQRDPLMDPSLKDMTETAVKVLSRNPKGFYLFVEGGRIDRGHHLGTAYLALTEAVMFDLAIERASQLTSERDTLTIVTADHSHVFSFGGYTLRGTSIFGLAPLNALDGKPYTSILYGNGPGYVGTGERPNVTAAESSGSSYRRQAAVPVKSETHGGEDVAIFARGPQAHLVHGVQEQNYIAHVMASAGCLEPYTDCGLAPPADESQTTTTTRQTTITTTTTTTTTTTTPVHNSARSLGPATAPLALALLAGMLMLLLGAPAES
# T3 sequence (P09923 whole entry): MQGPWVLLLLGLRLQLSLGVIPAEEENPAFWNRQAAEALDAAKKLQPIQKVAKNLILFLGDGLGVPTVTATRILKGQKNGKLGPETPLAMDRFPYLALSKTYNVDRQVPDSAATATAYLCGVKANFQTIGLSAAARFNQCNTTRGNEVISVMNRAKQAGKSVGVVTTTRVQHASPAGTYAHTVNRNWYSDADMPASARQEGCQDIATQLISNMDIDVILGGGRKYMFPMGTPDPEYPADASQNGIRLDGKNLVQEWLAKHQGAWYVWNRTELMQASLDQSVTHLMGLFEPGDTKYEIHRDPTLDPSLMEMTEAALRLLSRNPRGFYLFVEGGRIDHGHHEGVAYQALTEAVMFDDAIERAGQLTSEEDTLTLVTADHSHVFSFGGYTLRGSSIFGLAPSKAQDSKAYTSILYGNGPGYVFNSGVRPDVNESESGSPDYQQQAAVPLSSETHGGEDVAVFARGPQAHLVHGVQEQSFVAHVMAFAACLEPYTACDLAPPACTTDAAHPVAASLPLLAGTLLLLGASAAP
# Chain of Latent membrane protein 1 (P03230 whole entry): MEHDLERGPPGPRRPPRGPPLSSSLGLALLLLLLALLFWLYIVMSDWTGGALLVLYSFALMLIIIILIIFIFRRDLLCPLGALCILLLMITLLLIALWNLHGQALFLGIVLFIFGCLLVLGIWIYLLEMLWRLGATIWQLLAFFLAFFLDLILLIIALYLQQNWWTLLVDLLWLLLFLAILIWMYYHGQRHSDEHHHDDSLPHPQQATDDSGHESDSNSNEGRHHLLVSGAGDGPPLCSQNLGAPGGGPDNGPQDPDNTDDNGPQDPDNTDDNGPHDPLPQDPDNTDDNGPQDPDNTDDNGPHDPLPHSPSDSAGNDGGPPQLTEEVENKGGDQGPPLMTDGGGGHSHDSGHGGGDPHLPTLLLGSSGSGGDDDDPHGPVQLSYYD
SMILES,EC50 [1],IC50 [2],EC50 [3],IC50 [4],IC50 [5],IC50 [6],IC50 [7],EC50 [8],EC50 [9],EC50 [10],AC50 [11],AC50 [12],IC50 [13]
O=C(N/N=C/c1ccc(O)cc1O)C(=O)N/N=C/c1ccc(O)cc1O,> 100 µM (inactive),0.604 µM (active),7.62 µM (active),38.1 µM (active),51.3 µM (active),2.31 µM (active),5.04 µM (active),–,–,–,–,–,–
Cc1onc(-c2ccccc2)c1C(=O)NC(=S)NNC(=O)c1ccc(O)cc1O,–,–,–,–,–,–,–,> 150 µM (not active),6.86 µM (active),25.3 µM (active),1.15 µM (active),3.95 µM (active),11.4 µM (active)
